Measured values: US20040229772A1, “Peptides responsive to antibodies against consensus peptide of the CS4-CFA/I family proteins” (priority 1996, published 2004)

Assays:
Type in all cases: binding
Antibody to CS1 = experiment: ELISA of 8-mer peptides (pins) with rabbit serum; conditions: a listed pin number means recognized
Procedure: (§1) Blocks of pins for cleavable syntheses were obtained from Chiron Mimotopes U.S. Peptide synthesis was carried out according to the manufacturer's instructions using Opfp-derivatized amino acids. Peptides of length 8 with 7 overlap were manufactured in order to locate all linear epitopes in the sequence with a highest redundancy. […] Peptides were cleaved from the pins using 0.1 M phosphate buffer, pH 8.0, containing 40% acetonitrile. Two peptides were made and sacrificed for amino acid analysis as proof of peptide purity. A dinitrophenol (DNP) pin was included so that the efficiency of the cleavage could be monitored spectrophotometrically.
(§2) For blocking, a composition containing 5% nonfat dry milk in PBS+0.2% sodium azide was used. Stock streptavidin (Calbiochem Corp., La Jolla, Calif.) at 1 mg/ml in water was kept frozen in aliquots for up to several months. On the day of use, the stock streptavidin was diluted in phosphate buffered saline (PBS) to provide a concentration of 5 μg/ml streptavidin. Goat F(ab′)2 anti-mouse, anti-rabbit and anti-human sera were labeled with alkaline phosphatase (Biosource, International, Camarillo, Calif.).
(§3) Streptavidin was plated at 5 μg/ml, 50 μl per well, and incubated over night at 4° C. Plates were then washed by hand (Nunc Immunowash 12 hand plate washer. Fisher Scientific, Pittsburgh, Pa.) three times with PBS/0.1% TWEEN 20™. Peptides were then diluted to 10 μg/ml in PBS and plated at 50-μl/well. After incubation for one hour at room temperature followed by washing, the peptides were incubated with sera diluted in blocker at appropriate concentrations (5% nonfat dry milk) for 2 hours at room temperature. After washing the wells, 50 μl of phosphatase-labeled anti-serum IgG diluted 1:1000 in blocker was added to each well and was allowed to incubate at room temperature for 1 hour. The plates were washed. The 100 μl of PNDP (p-nitrophenylphosphate) substrate, prepared according to the manufacturer's instructions, was added to each well. Results were read at 5, 15 and 60 minutes using a microtiter plate reader (UVmax™, Moelcular Devices, Sunnyvale, Calif.).
(§4) Partially to fully purified colonization factor (40% to 100% pure) was run on SDS-PAGE gel (5-15 μg/lane of 10 comb gel (precast 10 comb, 1 mm thickness, Tris-tricene gel from Novex, San Diego, Calif.), for primary immunization run 9 lanes for each rabbit (45-135 μg CF protein with ½ the amount used in the primary immunization used as a booster). The gel was stained with 0.5% COOMASSIE BLUE™ (BioRad, Richmond, Calif.) in water for 1 hour, then destained with multiple changes of water for 60-90 minutes. The colonization factor bands were excised with a scalpel and the excess gel trimmed. The bands were stored at −20° C. until use.
(§5) After removal from freezer, the gel slices were transferred to a glass tissue homogenizer using a teflon pestle with grooves at the tip. The slices were ground with 0.3 ml phosphate buffered saline (PBS). The drill was run to homogenize the gel for 30 to 45 seconds. (In the instant case, a pestle with a shaft of steel was used which allowed placement of the pestle into the chuck of the hand-held drill.)
(§6) The homogenate was transferred to 16 mm×150 mm test tubes with disposable plastic transfer pipet. The pestle and homogenizer vessel was rinsed repeatedly with PBS and the contents transferred to the 16×150 test tube until a volume of 1.2 ml was obtained.
(§7) The sample obtained above was placed in a vortex mixer and vortexed on high. Freund's adjuvant 1.2 ml was added. (Complete Freund's was used for the primary immunization, while incomplete Freund's was used for the boost.) The composition was vortexed until a thick emulsion of almost a butter consistency was obtained (12-20 minutes).
(§8) A preimmune serum was obtained on all animals, which were then immunized with the 1 ml of the emulsion subcutaneously at 4-6 spots on the shoulders and rump. The animals were boosted three weeks later, then bleed 10 days after the booster shots. […]

[1] = test system: antibodies raised to the consensus peptide; experiment: ELISA of 8-mer peptides with rabbit antibodies; conditions: for reactivity of 8-mer peptides with antibodies from the rabbits: rabbit antibodies raised to consensus peptide SEQ ID NO:1, biotin-SGSG-peptide on streptavidin; for interaction of peptides with the antibodies raised to the consensus peptide: rabbit antibodies raised to consensus peptide SEQ ID NO:1
Procedure: as §1, §2, §3
Antibodies from the rabbits were then tested against the specific 8-mer peptides obtained from SEQ ID NO:1 in the manner disclosed above to determine the binding sites of the antibodies in the sera with the consensus peptide.

Antibody to CS2 = experiment: ELISA of 8-mer peptides (pins) with rabbit serum; conditions: a listed pin number means recognized
Procedure: as §1, §2, §3, §4, §5, §6, §7, §8

Antibody to CS4 = experiment: ELISA of 8-mer peptides (pins) with rabbit serum; conditions: a listed pin number means recognized
Procedure: as §1, §2, §3, §4, §5, §6, §7, §8

Antibody to 0166 upper = experiment: ELISA of 8-mer peptides (pins) with rabbit serum
Procedure: as §1, §2, §3, §4, §5, §6, §7, §8

Antibody to 0166 lower = experiment: ELISA of 8-mer peptides (pins) with rabbit serum
Procedure: as §1, §2, §3, §4, §5, §6, §7, §8

Antibody to CS17 = experiment: ELISA of 8-mer peptides (pins) with rabbit serum; conditions: a listed pin number means recognized
Procedure: as §1, §2, §3, §4, §5, §6, §7, §8

[2] = rabbit 1081, a listed pin number means recognized
[3] = rabbit 1083, a listed pin number means recognized

Sequence | pins (8-aa peptide) recognized by serum (Antibody to CS1; Antibody to CS1, rabbit 1089) | pins (8-aa peptide) recognized by serum (Antibody to CS1; Antibody to CS1, rabbit 1090) | reactivity of 8-mer peptides with antibodies from the rabbits [1] | other results
ADGSALPS (listed as Escherichia coli) [compound 20] | 20 | 20 |  | 
ALPSAVAL (listed as Escherichia coli) [compound 24] |  | 24 | most reactive | pins (8-aa peptide) recognized by serum (Antibody to CS2; Antibody to CS2, rabbit 1077): 24; pins (8-aa peptide) recognized by serum (Antibody to CS4; Antibody to CS4, rabbit 940): 24
AVALTYSP (listed as Escherichia coli) [compound 28] | 28 | 28 | most reactive | interaction of peptides with the antibodies raised to the consensus peptide [1]: more reliably interactive
DGSALPSA (listed as Escherichia coli) [compound 21] | 21 | 21 |  | 
DLLQADGS (listed as Escherichia coli) [compound 16] |  |  |  | pins (8-aa peptide) recognized by serum (Antibody to 0166 upper; [2]): 16
DPTIDLLQ (listed as Escherichia coli) [compound 12] | 12 | 12 | most reactive | interaction of peptides with the antibodies raised to the consensus peptide [1]: more reliably interactive; pins (8-aa peptide) recognized by serum (Antibody to 0166 lower; rabbit 1082, a listed pin number means recognized): 12; pins (8-aa peptide) recognized by serum (Antibody to 0166 lower; [3]): 12; pins (8-aa peptide) recognized by serum (Antibody to 0166 upper; rabbit 934, a listed pin number means recognized): 12; pins (8-aa peptide) recognized by serum (Antibody to 0166 upper; [2]): 12; pins (8-aa peptide) recognized by serum (Antibody to CS2; Antibody to CS2, rabbit 1076): 12; pins (8-aa peptide) recognized by serum (Antibody to CS4; Antibody to CS4, rabbit 938): 12; pins (8-aa peptide) recognized by serum (Antibody to CS4; Antibody to CS4, rabbit 940): 12
EKNITVTA (listed as Escherichia coli) [compound 2] |  |  | most reactive | pins (8-aa peptide) recognized by serum (Antibody to 0166 lower; [3]): 2; pins (8-aa peptide) recognized by serum (Antibody to CS17; Antibody to CS17, rabbit 1080): 2; pins (8-aa peptide) recognized by serum (Antibody to CS4; Antibody to CS4, rabbit 940): 2
GSALPSAV (listed as Escherichia coli) [compound 22] |  | 22 |  | pins (8-aa peptide) recognized by serum (Antibody to CS4; Antibody to CS4, rabbit 940): 22
IDLLQADG (listed as Escherichia coli) [compound 15] |  |  |  | pins (8-aa peptide) recognized by serum (Antibody to 0166 upper; [2]): 15
ITVTASVD (listed as Escherichia coli) [compound 5] |  |  | most reactive | 
LLQADGSA (listed as Escherichia coli) [compound 17] |  |  |  | pins (8-aa peptide) recognized by serum (Antibody to 0166 upper; [2]): 17
LPSAVALT (listed as Escherichia coli) [compound 25] |  |  | most reactive | pins (8-aa peptide) recognized by serum (Antibody to CS4; Antibody to CS4, rabbit 940): 25
LQADGSAL (listed as Escherichia coli) [compound 18] | 18 | 18 |  | 
NITVTASV (listed as Escherichia coli) [compound 4] | 4 | 4 | most reactive | pins (8-aa peptide) recognized by serum (Antibody to CS17; Antibody to CS17, rabbit 1080): 4
PSAVALTY (listed as Escherichia coli) [compound 26] |  | 26 | most reactive | interaction of peptides with the antibodies raised to the consensus peptide [1]: more reliably interactive; pins (8-aa peptide) recognized by serum (Antibody to CS4; Antibody to CS4, rabbit 938): 26
QADGSALP (listed as Escherichia coli) [compound 19] | 19 | 19 |  | 
SALPSAVA (listed as Escherichia coli) [compound 23] |  | 23 | most reactive | 
SAVALTYS (listed as Escherichia coli) [compound 27] |  | 27 | most reactive | interaction of peptides with the antibodies raised to the consensus peptide [1]: more reliably interactive
SVDPTIDL (listed as Escherichia coli) [compound 10] | 10 | 10 | most reactive | interaction of peptides with the antibodies raised to the consensus peptide [1]: more reliably interactive; pins (8-aa peptide) recognized by serum (Antibody to 0166 upper; [2]): 10; pins (8-aa peptide) recognized by serum (Antibody to CS2; Antibody to CS2, rabbit 1076): 10; pins (8-aa peptide) recognized by serum (Antibody to CS2; Antibody to CS2, rabbit 1077): 10; pins (8-aa peptide) recognized by serum (Antibody to CS4; Antibody to CS4, rabbit 938): 10; pins (8-aa peptide) recognized by serum (Antibody to CS4; Antibody to CS4, rabbit 940): 10
TASVDPTI (listed as Escherichia coli) [compound 8] |  | 8 | most reactive | pins (8-aa peptide) recognized by serum (Antibody to CS17; Antibody to CS17, rabbit 1084): 8; pins (8-aa peptide) recognized by serum (Antibody to CS2; Antibody to CS2, rabbit 1076): 8; pins (8-aa peptide) recognized by serum (Antibody to CS2; Antibody to CS2, rabbit 1077): 8; pins (8-aa peptide) recognized by serum (Antibody to CS4; Antibody to CS4, rabbit 938): 8
TVTASVDP (listed as Escherichia coli) [compound 6] |  | 6 |  | pins (8-aa peptide) recognized by serum (Antibody to CS17; Antibody to CS17, rabbit 1084): 6
VALTYSPA (listed as Escherichia coli) [compound 29] | 29 | 29 | most reactive | 
VEKNITVT (listed as Escherichia coli) [compound 1] |  |  |  | pins (8-aa peptide) recognized by serum (Antibody to CS17; Antibody to CS17, rabbit 1084): 1; pins (8-aa peptide) recognized by serum (Antibody to CS4; Antibody to CS4, rabbit 940): 1
VTASVDPT (listed as Escherichia coli) [compound 7] |  | 7 |  | pins (8-aa peptide) recognized by serum (Antibody to CS17; Antibody to CS17, rabbit 1084): 7; pins (8-aa peptide) recognized by serum (Antibody to CS2; Antibody to CS2, rabbit 1076): 7; pins (8-aa peptide) recognized by serum (Antibody to CS2; Antibody to CS2, rabbit 1077): 7
